Activity calls are given as the source filed them. The rule behind the calls is not given here.

The data set concerns rodent carcinogenicity bioassays, tumor incidence. Put plainly: CCRIS carcinogenicity studies. The following applies: Route: INHALATION
The gist of the method: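 NCI-built, expert-reviewed records of carcinogenicity and related test outcomes (mutagenicity, tumor promotion/inhibition) compiled from published and report sources, historical span 1985-2011, not updated.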

In the case of `C=CC=C`, the carcinogen call was “active; positive” (Species: MOUSE, Strain/Sex: B6C3F1/FEMALE, Dose: 0, 6.25, 20, 62.5, 200, 625 PPM 6 HR/D 5 D/WK FOR 2 YR (STUDY DURATION: 2 YR), Dose: 0, 6.25, 20, 62.5, 200, 625 PPM 6 HR/D 5 D/WK FOR 2 YR (STUDY DURATION: 2 YR), Tumor Site: Type of Lesion: HARDERIAN GLAND: ADENOMA OR ADENOCARCINOMA, LIVER: HEPATOCELLULAR CARCINOMA, MAMMARY GLAND: ADENOCARCINOMA, OVARIES: GRA, Tumor Site: Type of Lesion: HARDERIAN GLAND: ADENOMA OR ADENOCARCINOMA, LIVER: HEPATOCELLULAR CARCINOMA, MAMMARY GLAND: ADENOCARCINOMA, OVARIES: GRA); “active; positive” (Species: MOUSE, Strain/Sex: B6C3F1/FEMALE, Dose: 0, 6.25, 20, 62.5, 200, 625 PPM 6 HR/D 5 D/WK FOR 2 YR (STUDY DURATION: 2 YR), Dose: 0, 6.25, 20, 62.5, 200, 625 PPM 6 HR/D 5 D/WK FOR 2 YR (STUDY DURATION: 2 YR), Tumor Site: Type of Lesion: HEMATOPOIETIC SYSTEM: LYMPHOCYTIC LYMPHOMA, LYMPHOMA, BLOOD VESSELS: HEMANGIOSARCOMA, LUNG: ALVEOLAR/BRONCHIOLAR TUMOR;, Tumor Site: Type of Lesion: HEMATOPOIETIC SYSTEM: LYMPHOCYTIC LYMPHOMA, LYMPHOMA, BLOOD VESSELS: HEMANGIOSARCOMA, LUNG: ALVEOLAR/BRONCHIOLAR TUMOR); “active; positive” (Species: MOUSE, Strain/Sex: B6C3F1/FEMALE, Dose: 0, 6.25, 20, 62.5, 200, 625 PPM 6 HR/D 5 D/WK FOR 103 WK (STUDY DURATION: 2 YR), Dose: 0, 6.25, 20, 62.5, 200, 625 PPM 6 HR/D 5 D/WK FOR 103 WK (STUDY DURATION: 2 YR), Tumor Site: Type of Lesion: HEART: HEMANGIOSARCOMA, LUNG: ALVEOLAR/BRONCHIOLAR ADENOMA, ADENOCARCINOMA OR CARCINOMA, FORESTOMACH: SQUAMOUS CELL PAPI, Tumor Site: Type of Lesion: HEART: HEMANGIOSARCOMA, LUNG: ALVEOLAR/BRONCHIOLAR ADENOMA, ADENOCARCINOMA OR CARCINOMA, FORESTOMACH: SQUAMOUS CELL PAPI); “active; positive” (Species: MOUSE, Strain/Sex: B6C3F1/FEMALE, Dose: 0, 6.25, 20, 62.5, 200 PPM 6 HR/D 5 D/WK FOR 65 WK (STUDY DURATION: 104 WK), Dose: 0, 6.25, 20, 62.5, 200 PPM 6 HR/D 5 D/WK FOR 65 WK (STUDY DURATION: 104 WK), Tumor Site: Type of Lesion: HEART: HEMANGIOSARCOMA, LUNG: ALVEOLAR/BRONCHIOLAR TUMOR, MAMMARY GLAND: ADENOCARCINOMA, OVARY: GRANULOSA CELL TUMOR, Tumor Site: Type of Lesion: HEART: HEMANGIOSARCOMA, LUNG: ALVEOLAR/BRONCHIOLAR TUMOR, MAMMARY GLAND: ADENOCARCINOMA, OVARY: GRANULOSA CELL TUMOR); “inactive; negative” (Species: MOUSE, Strain/Sex: B6C3F1/FEMALE, Dose: 0, 1000, 5000, 10000 PPM FOR 2 HR ONCE (STUDY DURATION: 2 YR), Dose: 0, 1000, 5000, 10000 PPM FOR 2 HR ONCE (STUDY DURATION: 2 YR)); “active; positive” (Species: MOUSE, Strain/Sex: B6C3F1/FEMALE, Dose: 625, 1250 PPM 6 HR/D 5/WK FOR 61 WK, Tumor Site: Type of Lesion: LYMPHATIC SYSTEM: MALIGNANT LYMPHOMA, LUNG: ALVEOLAR/BRONCHIOLAR ADENOMA, CARCINOMA, MYOCARDIUM: HEMANGIOSARCOMA, FOREST, Tumor Site: Type of Lesion: LYMPHATIC SYSTEM: MALIGNANT LYMPHOMA, LUNG: ALVEOLAR/BRONCHIOLAR ADENOMA, CARCINOMA, MYOCARDIUM: HEMANGIOSARCOMA, FOREST). The carcinogen call reads like this: (Species: MOUSE, Strain/Sex: B6C3F1/MALE, Dose: 0, 6.25, 20, 62.5, 200, 625 PPM 6 HR/D 5 D/WK FOR 2 YR (STUDY DURATION: 2 YR), Dose: 0, 6.25, 20, 62.5, 200, 625 PPM 6 HR/D 5 D/WK FOR 2 YR (STUDY DURATION: 2 YR), Tumor Site: Type of Lesion: HEMATOPOIETIC SYSTEM: LYMPHOCYTIC LYMPHOMA, LYMPHOMA, BLOOD VESSELS: HEMANGIOSARCOMA, LUNG: ALVEOLAR/BRONCHIOLAR TUMOR;, Tumor Site: Type of Lesion: HEMATOPOIETIC SYSTEM: LYMPHOCYTIC LYMPHOMA, LYMPHOMA, BLOOD VESSELS: HEMANGIOSARCOMA, LUNG: ALVEOLAR/BRONCHIOLAR TUMOR) “active; positive”; (Species: MOUSE, Strain/Sex: B6C3F1/MALE, Dose: 0, 6.25, 20, 62.5, 200, 625 PPM 6 HR/D 5 D/WK FOR 2 YR (STUDY DURATION: 2 YR), Dose: 0, 6.25, 20, 62.5, 200, 625 PPM 6 HR/D 5 D/WK FOR 2 YR (STUDY DURATION: 2 YR), Tumor Site: Type of Lesion: PREPUTIAL GLAND: ADENOMA OR CARCINOMA, LIVER: HEPATOCELLULAR TUMOR, HARDERIAN GLAND: TUMOR, Tumor Site: Type of Lesion: PREPUTIAL GLAND: ADENOMA OR CARCINOMA, LIVER: HEPATOCELLULAR TUMOR, HARDERIAN GLAND: TUMOR) “active; positive”; (Species: MOUSE, Strain/Sex: B6C3F1/MALE, Dose: 0, 6.25, 20, 62.5, 200, 625 PPM 6 HR/D 5 D/WK FOR 103 WK (STUDY DURATION: 2 YR), Dose: 0, 6.25, 20, 62.5, 200, 625 PPM 6 HR/D 5 D/WK FOR 103 WK (STUDY DURATION: 2 YR), Tumor Site: Type of Lesion: HEART: HEMANGIOSARCOMA, LUNG: ALVEOLAR/BRONCHIOLAR ADENOMA, ADENOCARCINOMA OR CARCINOMA, FORESTOMACH: SQUAMOUS CELL PAPI, Tumor Site: Type of Lesion: HEART: HEMANGIOSARCOMA, LUNG: ALVEOLAR/BRONCHIOLAR ADENOMA, ADENOCARCINOMA OR CARCINOMA, FORESTOMACH: SQUAMOUS CELL PAPI) “active; positive”; (Species: MOUSE, Strain/Sex: B6C3F1/MALE, Dose: 0, 6.25, 20, 62.5, 200 PPM, 6 HR/D 5 D/WK FOR 65 WK (STUDY DURATION: 104 WK), Dose: 0, 6.25, 20, 62.5, 200 PPM, 6 HR/D 5 D/WK FOR 65 WK (STUDY DURATION: 104 WK), Tumor Site: Type of Lesion: HEART: HEMANGIOSARCOMA, LUNG: ALVEOLAR/BRONCHIOLAR TUMOR, HARDERIAN GLAND: ADENOMA, Tumor Site: Type of Lesion: HEART: HEMANGIOSARCOMA, LUNG: ALVEOLAR/BRONCHIOLAR TUMOR, HARDERIAN GLAND: ADENOMA) “active; positive”; (Species: MOUSE, Strain/Sex: B6C3F1/MALE, Dose: 0, 200 PPM 6 HR/D 5 D/WK FOR 40 WK, 625 PPM FOR 13 WK, 312 PPM FOR 52 WK OR 625 PPM FOR 26 WK FOLLOWED BY CONTROL CHAMBE, Dose: 0, 200 PPM 6 HR/D 5 D/WK FOR 40 WK, 625 PPM FOR 13 WK, 312 PPM FOR 52 WK OR 625 PPM FOR 26 WK FOLLOWED BY CONTROL CHAMBE, Tumor Site: Type of Lesion: HEART: HEMANGIOSARCOMA, LUNG: ALVEOLAR/BRONCHIOLAR ADENOMA, ADENOCARCINOMA OR CARCINOMA, FORESTOMACH: SQUAMOUS CELL PAPI, Tumor Site: Type of Lesion: HEART: HEMANGIOSARCOMA, LUNG: ALVEOLAR/BRONCHIOLAR ADENOMA, ADENOCARCINOMA OR CARCINOMA, FORESTOMACH: SQUAMOUS CELL PAPI) “active; positive”; (Species: MOUSE, Strain/Sex: B6C3F1/MALE, Dose: 0, 1000, 5000, 10000 PPM FOR 2 HR ONCE (STUDY DURATION: 2 YR), Dose: 0, 1000, 5000, 10000 PPM FOR 2 HR ONCE (STUDY DURATION: 2 YR)) “inactive; negative”. Besides, the carcinogen call is “active; positive” (Species: MOUSE, Strain/Sex: B6C3F1/MALE, Dose: 625, 1250 PPM 6 HR/D 5/WK FOR 60 WK, Tumor Site: Type of Lesion: LYMPHATIC SYSTEM: MALIGNANT LYMPHOMA, LUNG: ALVEOLAR/BRONCHIOLAR ADENOMA, CARCINOMA, MYOCARDIUM: HEMANGIOSARCOMA, FOREST, Tumor Site: Type of Lesion: LYMPHATIC SYSTEM: MALIGNANT LYMPHOMA, LUNG: ALVEOLAR/BRONCHIOLAR ADENOMA, CARCINOMA, MYOCARDIUM: HEMANGIOSARCOMA, FOREST); “active; positive” (Species: RAT, Strain/Sex: SPRAGUE-DAWLEY/FEMALE, Dose: 0, 1000, 8000 PPM 6 HR/D 5 D/WK FOR 105 WK (STUDY DURATION: 105 WK), Dose: 0, 1000, 8000 PPM 6 HR/D 5 D/WK FOR 105 WK (STUDY DURATION: 105 WK), Tumor Site: Type of Lesion: UTERUS: SARCOMA, MAMMARY GLAND: ADENOMA, ZYMBAL GLAND: CARCINOMA, THYROID GLAND: FOLLICULAR CELL ADENOMA, Tumor Site: Type of Lesion: UTERUS: SARCOMA, MAMMARY GLAND: ADENOMA, ZYMBAL GLAND: CARCINOMA, THYROID GLAND: FOLLICULAR CELL ADENOMA); “active; positive” (Species: RAT, Strain/Sex: SPRAGUE-DAWLEY/MALE, Dose: 0, 1000, 8000 PPM 6 HR/D 5 D/WK FOR 111 WK (STUDY DURATION: 111 WK), Dose: 0, 1000, 8000 PPM 6 HR/D 5 D/WK FOR 111 WK (STUDY DURATION: 111 WK), Tumor Site: Type of Lesion: PANCREAS: ACINAR CELL ADENOMA, TESTES: LEYDIG CELL TUMOR).

Values taken from PubChem BioAssay AID1259411 (Chemical Carcinogenesis Research Information System (CCRIS), 2018).
